In US11066414B2, “Cot modulators and methods of use thereof” (Gilead Sciences, Inc., priority 2015, dated 2021):

What follows are compounds tested on TNFα (assay: Cot Monocyte TNFα Cell Based Assay). Conditions: Homo sapiens, Monocyte, read-out: EC50 TNF, LPS-stimulated human monocytes, TNFα.

Compound | EC50 [nM]
N#Cc1cnc2c(Cl)cc(N[C@@H](C3=CCOCC3)c3c[nH]nn3)cc2c1Nc1cnc(F)c(F)c1 [Example 156, (S)-8-chloro-4-((5,6-difluoropyridin-3-yl)amino)-6-(((3,6-dihydro-2H-pyran-4-yl)(1H-1,2,3-triazol-4-yl)methyl)amino)quinoline-3-carbonitrile] | 1190
CC(C)n1ccc2c([C@H](Nc3cc(Cl)c4ncc(C#N)c(NCC(C)(C)C)c4c3)c3cn(C4(C)CC4)nn3)cccc2c1=O [Example 774, (S)-8-chloro-6-(((2-isopropyl-1-oxo-1,2-dihydroisoquinolin-5-yl)(1-(1-methylcyclopropyl)-1H-1,2,3-triazol-4-yl)methyl)amino)-4-(neopentyl-amino)quinoline-3-carbonitrile] | 40
Cn1ncc2cccc([C@H](Nc3cc(C#N)c4ncc(C#N)c(NCC(C)(C)C)c4c3)c3cn(C4(C(F)(F)F)CC4)nn3)c21 [Example 526, (S)-6-(((1-methyl-1H-indazol-7-yl)(1-(1-(trifluoromethyl)cyclopropyl)-1H-1,2,3-triazol-4-yl)methyl)amino)-4-(neopentylamino)quinoline-3,8-dicarbonitrile] | 73
Cc1nc(Cl)ccc1[C@H](Nc1cc(Cl)c2ncc(C#N)c(NCC(C)(C)C)c2c1)c1cn(C2(C(F)(F)F)CC2)nn1 [Example 794, (S)-8-chloro-6-(((6-chloro-2-methylpyridin-3-yl)(1-(1-(trifluoromethyl)-cyclopropyl)-1H-1,2,3-triazol-4-yl)methyl)amino)-4-(neopentylamino)quinoline-3-carbonitrile] | 130
N#Cc1csc([C@H](Nc2cc(Cl)c3ncc(C#N)c(Nc4ccc(F)c(Cl)c4)c3c2)c2cn(C3COC3)nn2)c1 [Example 339, (R)-8-chloro-4-((3-chloro-4-fluorophenyl)amino)-6-(((4-cyanothiophen-2-yl)(1-(oxetan-3-yl)-1H-1,2,3-triazol-4-yl)methyl)amino)-quinoline-3-carbonitrile] | 1010
Cn1ccc2c([C@H](Nc3cc(Cl)c4ncc(C#N)c(NCC(C)(C)C)c4c3)c3cn(C(CF)CF)nn3)cccc2c1=O [Example 777, (S)-8-chloro-6-(((1-(1,3-difluoropropan-2-yl)-1H-1,2,3-triazol-4-yl)(2-methyl-1-oxo-1,2-dihydroisoquinolin-5-yl)methyl)amino)-4-(neopentylamino)quinoline-3-carbonitrile] | 46
CCN1CCC(n2cc([C@@H](Nc3cc(Cl)c4ncc(C#N)c(Nc5ccc(F)c(Cl)c5)c4c3)c3cccs3)nn2)CC1 [Example 380, (R)-8-chloro-4-((3-chloro-4-fluoro-phenyl)amino)-6-(((1-(1-ethylpiperidin-4-yl)-1H-1,2,3-triazol-4-yl)(thiophen-2-yl)methyl)amino)quinoline-3-carbonitrile] | 609
Cc1nc(F)ccc1[C@H](Nc1cc(Cl)c2ncc(C#N)c(N[C@H](CCC#N)c3ccccc3)c2c1)c1cn(C2CC2)nn1 [Example 431, 8-chloro-4-(((R)-3-cyano-1-phenyl-propyl)amino)-6-(((S)-(1-cyclopropyl-1H-1,2,3-triazol-4-yl)(6-fluoro-2-methylpyridin-3-yl)methyl)amino)-quinoline-3-carbonitrile] | 21
N#Cc1cnc2c(Cl)cc(N[C@@H](c3cccnc3)c3cn(C4CC4)nn3)cc2c1Nc1cnc(F)c(F)c1 [Example 206, (S)-8-chloro-6-(((1-cyclopropyl-1H-1,2,3-triazol-4-yl)(pyridin-3-yl)methyl)amino)-4-((5,6-difluoropyridin-3-yl)amino)quinoline-3-carbonitrile] | 211
CC(C)(C)CNc1c(C#N)cnc2c(Cl)cc(N[C@H](c3cn(C4(C(F)(F)F)CC4)nn3)c3ccc(F)c4cnccc34)cc12 [Example 616, (S)-8-chloro-6-(((8-fluoroisoquinolin-5-yl)(1-(1-(trifluoromethyl)cyclopropyl)-1H-1,2,3-triazol-4-yl)methyl)amino)-4-(neopentylamino)quinoline-3-carbonitrile] | 104
Cc1nc(F)ccc1[C@H](Nc1cc(Cl)c2ncc(C#N)c(NCC(C)(C)C)c2c1)c1cn(CC2(C(F)(F)F)CC2)nn1 [Example 751, (S)-8-chloro-6-(((6-fluoro-2-methylpyridin-3-yl)(1-((1-(trifluoromethyl)-cyclopropyl)methyl)-1H-1,2,3-triazol-4-yl)methyl)amino)-4-(neopentylamino)quinoline-3-carbonitrile] | 230
CC(C)(C)CNc1c(C#N)cnc2c(Cl)cc(N[C@H](c3cn(C4(C(F)(F)F)CC4)nn3)c3ccc(Cl)c4cnccc34)cc12 [Example 651, (S)-8-chloro-6-(((8-chloroisoquinolin-5-yl)(1-(1-(trifluoromethyl)cyclopropyl)-1H-1,2,3-triazol-4-yl)methyl)amino)-4-(neopentylamino)quinoline-3-carbonitrile] | 135
Cn1cnc([C@H](Nc2cc(Cl)c3ncc(C#N)c(Nc4ccc(F)c(Cl)c4)c3c2)c2c[nH]nn2)c1 [Example 266, (S)-8-chloro-4-((3-chloro-4-fluorophenyl)amino)-6-(((1-methyl-1H-imidazol-4-yl)(1H-1,2,3-triazol-4-yl)methyl)amino)-quinoline-3-carbonitrile] | 28800
N#Cc1cnc2c(Cl)cc(N[C@@H](c3cccnc3)c3cn(CC(F)(F)F)nn3)cc2c1Nc1cnc(F)c(F)c1 [Example 209, (S)-8-chloro-4-((5,6-difluoropyridin-3-yl)amino)-6-((pyridin-3-yl(1-(2,2,2-trifluoroethyl)-1H-1,2,3-triazol-4-yl)methyl)amino)quinoline-3-carbonitrile] | 941
Cc1nc(F)ccc1[C@H](Nc1cc(Cl)c2ncc(C#N)c(NCC(C)(C)C)c2c1)c1nnn(C2CC2)c1C [Example 647, (S)-8-chloro-6-(((1-cyclopropyl-5-methyl-1H-1,2,3-triazol-4-yl)(6-fluoro-2-methylpyridin-3-yl)methyl)amino)-4-(neopentylamino)quinoline-3-carbonitrile] | 133
Cc1ncccc1[C@H](Nc1cc(Cl)c2ncc(C#N)c(N[C@H](C)c3ccccc3)c2c1)c1c[nH]nn1 [Example 229, 8-chloro-6-(((S)-(2-methylpyridin-3-yl)(1H-1,2,3-triazol-4-yl)methyl)amino)-4-(((R)-1-phenylethyl)amino)quinoline-3-carbonitrile] | 1470
Cc1ncccc1[C@H](Nc1cc(Cl)c2ncc(C#N)c(Nc3ccc(F)c(Cl)c3)c2c1)c1c[nH]nn1 [Example 272, (S)-8-chloro-4-((3-chloro-4-fluorophenyl)amino)-6-(((2-methylpyridin-3-yl)(1H-1,2,3-triazol-4-yl)methyl)amino)quinoline-3-carbonitrile] | 297
Cc1nc(F)ccc1[C@H](Nc1cc(F)c2ncc(C#N)c(NCC(C)(C)C)c2c1)c1cn(C2(C#N)CC2)nn1 [Example 485, (S)-6-(((1-(1-cyanocyclopropyl)-1H-1,2,3-triazol-4-yl)(6-fluoro-2-methylpyridin-3-yl)methyl)amino)-8-fluoro-4-(neopentyl-amino)quinoline-3-carbonitrile] | 29
N#Cc1cnc2c(Cl)cc(N[C@@H](c3cccnc3)c3cn(C4COC4)nn3)cc2c1N[C@@H](CCO)c1ccccc1 [Example 182, 8-chloro-4-(((S)-3-hydroxy-1-phenylpropyl)amino)-6-(((S)-(1-(oxetan-3-yl)-1H-1,2,3-triazol-4-yl)(pyridin-3-yl)methyl)amino)quinoline-3-carbonitrile] | 1040
Cc1nc(F)ccc1[C@H](Nc1cc(C#N)c2ncc(C#N)c(NCC(C)(C)C)c2c1)c1cn(C2(C(F)(F)F)COC2)nn1 [Example 644, (S)-6-(((6-fluoro-2-methylpyridin-3-yl)(1-(3-(trifluoromethyl)oxetan-3-yl)-1H-1,2,3-triazol-4-yl)methyl)amino)-4-(neopentylamino)quinoline-3,8-dicarbonitrile] | 88

Same assay, conditions: Homo sapiens, Monocyte, read-out: EC50 TNF, LPS-stimulated human monocytes, TNFα TR-FRET

Compound | EC50 [nM]
COc1c(C(Nc2cc(C#N)c3ncc(C#N)c(NCC(C)(C)C)c3c2)c2ccc(F)nc2C)nnn1C (stereo not drawn) [Example 908, 6-(((6-fluoro-2-methylpyridin-3-yl)(5-methoxy-1-methyl-1H-1,2,3-triazol-4-yl)methyl)amino)-4-(neopentyl-amino)quinoline-3,8-dicarbonitrile] | 238
CC1(n2cc([C@@H](Nc3cc(C#N)c4ncc(C#N)c(NCC(C)(C)C(F)(F)F)c4c3)c3cccc4ncccc34)nn2)CC1 [Example 895, (S)-6-(((1-(1-methylcyclopropyl)-1H-1,2,3-triazol-4-yl)(quinolin-5-yl)methyl)amino)-4-((3,3,3-trifluoro-2,2-dimethylpropyl)amino)quinoline-3,8-dicarbonitrile] | 41

Same assay, conditions: read-out: EC50 TNF; LPS-stimulated human monocytes, TNFα

Compound | EC50 [nM]
Cc1cc(Cl)ncc1[C@H](Nc1cc(Cl)c2ncc(C#N)c(Nc3ccc(F)c(Cl)c3)c2c1)c1cn(C2CCN(C(C)(C)C)CC2)nn1 [Example 289] | 837
Cc1ncccc1[C@H](Nc1cc(Cl)c2ncc(C#N)c(N[C@H](C)c3ccccc3)c2c1)c1cn(C2CCN(C(C)(C)C)CC2)nn1 [Example 231] | 230

Same assay, conditions: read-out: EC50 TNF; LPS-stimulated human monocytes, TNFα TR-FRET

Compound | EC50 [nM]
COc1nccc2c([C@H](Nc3cc(Cl)c4ncc(C#N)c(NCC(C)(C)C)c4c3)c3cn([C@@H](C)CF)nn3)cccc12 [Example 932, 8-chloro-6-(((S)-(1-((S)-1-fluoropropan-2-yl)-1H-1,2,3-triazol-4-yl)(1-methoxylsoquinolin-5-yl)methyl)amino)-4-(neopentylamino)quinoline-3-carbonitrile] | 205

Same assay, conditions: second value of the cell IC50/EC50; LPS-stimulated human monocytes, TNFα by TR-FRET

Compound | IC50/EC50 [nM]: EC50 (TNFα) [nM]
Cn1cc(CNc2cc(Cl)c3ncc(C#N)c(Nc4ccc(F)c(Cl)c4)c3c2)nn1 [Comparative Example 3, reference compound] | > 10000
CCN1CCC(n2cc(CNc3cc(Cl)c4ncc(C#N)c(Nc5ccc(F)c(Cl)c5)c4c3)nn2)CC1 [Comparative Example 1, reference compound] | 310
